The test system of assay [1] is HIV-1. Kind of assay: HIV maturation (budding) in virus-like particle assay, HIV-1 p24 antigen ELISA. The conditions noted are these: Human immunodeficiency virus 1, read-out: Budding (3 μM). It is filed as cell-based. The text has this: Compounds were further assessed for effects on maturation of HIV particles in a virus-like particle assay.
In assay [2] the target is T1, POSH (Homo sapiens, UniProt Q7Z6J0).
T1 construct: GST-POSH lot NB81/p.118 3.6 mg/ml; fused on or other part: GST tag, used for detection with anti-GST XL665
T1 sequence (Q7Z6J0 1-269 limits assumed): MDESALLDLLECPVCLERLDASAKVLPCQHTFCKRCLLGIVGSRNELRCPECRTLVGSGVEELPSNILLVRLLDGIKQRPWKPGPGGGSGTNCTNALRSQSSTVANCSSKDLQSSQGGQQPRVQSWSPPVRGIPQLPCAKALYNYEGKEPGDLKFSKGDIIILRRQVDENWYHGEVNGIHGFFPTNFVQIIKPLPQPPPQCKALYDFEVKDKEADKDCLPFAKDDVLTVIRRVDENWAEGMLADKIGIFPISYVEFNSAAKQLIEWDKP
As to the kind of experiment: Selectivity (% A in 1 μM), ubiquitin ligase activity of POSH. It is filed as biochemical. The following applies: read-out: Selectivity (% A* in 1 μM) POSH. As for the experimental part:
Experimental Protocols: 1. HTS Screening Assay Procedure • Microplates 10109D to 10114D compounds at 1 mM. • (Controls in column 1). • All compounds were perchase from ChemBridge corporation: ChemBridge corporation 16981 Via Tazon, Suite G San Diego, Calif. 92127 a. Microplates Labeling • Put labels to 6 PS U-bottom clear microplate. • Put labels to 18 black microplates (triplicats). b. Microplates Preparation • Put 100 μl GST-POSH at 33 nM in wells of the clear PS U-bottom microplates (exept wells A1-D1). • Negative control: place 100 μl dH2O in wells A1-D1. • (Positive control: place 100 μl GST-POSH at 33 nM in wells E1-H1). • Put 8 μl enzymes solution ×4 to black microplates (column 1 to 11). c. Incubation of E3 with Compounds • Transfer 5 μl of compounds (at 1 mM) to the microplates containing 100 μl GST-POSH. • Add 5 μl of DMSO to controls column 1. • Incubation 30 minutes at RT. d. […] 2. […] Microplates Labeling • Put labels to 4 clear PP clear microplate (18.2 μM, 9.1 uM, 1.82 uM, 910 nM,). • Put labels to 5 clear PS U-bottom clear microplate 4.44 μM, 909, 444, 91 and 44 nM) • Put labels to 15 black microplates (triplicates). f. Original Microplate Dilutions • Put DMSO 40 μl to (18.2 μM, 1.82 uM plates) and 20 ul to (9.1 uM, 910 nM plates. • Mix by pipetation the original microplate (3× up and down 45 μl). • Transfer 10 μl of compounds from the original microplate (at 91 μM) to the next microplate (=18.2 μM) on splitting apparatus. • Mix by pipetation the 18.2 uM microplate (3× up and down 45 μl). • Transfer 20 μl of compounds from the 18.2 uM microplate to the next microplate (=9.1 μM) on splitting apparatus. • Mix by pipetation the 9.1 uM microplate (3× up and down 45 μl). • Transfer 10 μl of compounds from the 9.1 uM microplate to the next microplate (=1.82 μM) on splitting apparatus. • Mix by pipetation the 1.82 uM microplate (3× up and down 45 μl). • Transfer 20 μl of compounds from the 1.82 uM microplate to the next microplate (=910 nM) on splitting apparatus • Mix by pipetation. g. Microplates Preparation • Put 123 μl GST-POSH at 33 nM in wells of the 5 clear PS U-bottom clear microplates. • Positive control: place 123 μl GST-POSH at 33 nM in well A12-h12 13 μl DMSO. • Negative control: place 123 μl dH2O in well B1 and 13 μl DMSO. • Put 8 μl enzymes solution ×4 to 15 black microplates. • Controls: put 8 μl enzymes solution ×4 to wells A1 to F1. h. Incubation of POSH with Compounds • Take 7 μl of compounds at original plate (91 μM) and put into the 4.44 μM labeled microplate containing 123 μl GST-POSH, on splitting apparatus. • Mix by pipetation (3× up and down 115 μl), note time. • Take 7 μl of compounds at 18.2 μM and put into the 910 nM labeled microplate containing 123 μl GST-POSH, on splitting apparatus. • Mix by pipetation (3× up and down 115 μl), note time. • Take 7 μl of compounds at 9.1 μM and put into the 444 nM labeled microplate containing 123 μl GST-POSH, on splitting apparatus. • Mix by pipetation (3× up and down 115 μl), note time. • Take 7 μl of compounds at […] and put into the 91 nM labeled microplate containing 123 μl GST-POSH, on splitting apparatus. • Mix by pipetation (3× up and down 115 μl), note time. • Take 7 μl of compounds at 91.0 nM and put into the 44 nM labeled microplate containing 123 μl GST-POSH, on splitting apparatus. • Mix by pipetation (3× up and down 115 μl), note time. • Incubation 30 minutes at RT. i.

Assay [3] has as its system E2 protein. It is filed as biochemical. The following applies: % activity at 1 μM compound; control is related to 100% activity; HTS protocol.
The target of assay [4] is c-cbl (Homo sapiens, UniProt P22681). As to the kind of experiment: Selectivity (% A in 1 μM), ubiquitin ligase activity of c-cbl. It is filed as biochemical. The following applies: % activity at 1 μM compound; control is related to 100% activity; HTS protocol.
[5] abbreviates: % activity at 1 μM compound, control is related to 100% activity, HTS protocol.

Like-named read-outs stand apart in the source and are kept apart here.

In the case of `O=C1NC(=O)C(=Cc2ccc(-c3cc(Cl)ccc3Cl)o2)C(=O)N1` [Compound 1], the activity at 3 µM in assay [1] stood at 46%. In addition, the remaining activity at 1 µM in assay [2] was 19%.
For the compound `C=CCN1C(=O)NC(=O)/C(=C\c2ccccc2)C1=O` [Compound 2], the activity at 3 µM in assay [1] stood at 66%. In assay [2], the remaining activity at 1 µM worked out at 50%.
`COc1ccc(N2C(=O)NC(=O)/C(=C\C=C\c3ccccc3)C2=O)cc1` [Compound 8]: in assay [1], the activity at 3 µM is 67%. In addition, in assay [2], the remaining activity at 1 µM was found to be 9%.
In the same order, the values of `CCCCCCOc1ccc(C=C2C(=O)NC(=S)NC2=O)cc1` [Compound 15] are 52% and 14%.
As to `O=C1C=CC(=O)N1c1ccccc1Cl` [Compound 18], in assay [1], the activity at 3 µM stood at 41%. Further, in assay [2], the remaining activity at 1 µM came to 24%.
Regarding `O=C1C=CC(=O)N1c1ccc(Cl)cc1` [Compound 19], the activity at 3 µM in assay [1] came to 52%. In assay [2], the remaining activity at 1 µM was 39%.
The corresponding values for `O=C1C=CC(=O)N1c1ccc(OC(F)(F)C(F)F)c(N2C(=O)C=CC2=O)c1` [Compound 20] are 60% and 33%.
As for `O=C1S/C(=C/c2ccc(-c3ccc([N+](=O)[O-])cc3Cl)o2)C(=O)N1c1ccccc1` [Compound 27], the activity at 3 µM in assay [1] amounted to 48%. In addition, the remaining activity at 1 µM in assay [2] was determined as 6%.
For `O=C(O)c1ccc(-c2ccc(/C=c3\sc4nc5ccccc5n4c3=O)o2)cc1` [Compound 28], in assay [1], the activity at 3 µM came to 54%. The remaining activity at 1 µM in assay [2] was determined as 26%.
Take `N=C1NC(=O)/C(=C\c2ccc(-c3ccc(I)cc3)o2)S1` [Compound 29]: the activity at 3 µM in assay [1] was determined as 63%. For the same compound, in assay [2], the remaining activity at 1 µM is 42%.
`O=c1/c(=C/c2ccc(N3CCOCC3)cc2)sc2nc3ccccc3n12` [Compound 32]: the activity at 3 µM in assay [1] was 67%. Also, the remaining activity at 1 µM in assay [2] came out at 66%.
As to `S=C(c1ccc(-c2cc(Cl)ccc2Cl)o1)N1CCCCC1` [Compound 35], the activity at 3 µM in assay [1] is 56%. Moreover, the remaining activity at 1 µM in assay [2] was 44%.
In the case of `O=C1C(=Cc2ccc(-c3ccc(Br)cc3)o2)C(=O)c2ccccc21` [Compound 38], the activity at 3 µM in assay [1] amounted to 38%. Also, the remaining activity at 1 µM in assay [2] amounted to 17%.
The corresponding values for `CN(C)c1ccc(/C=C2\C(=O)N(c3ccc([N+](=O)[O-])cc3)N=C2N2CCOCC2)cc1` [Compound 42] are 51% and 138%.
In the case of `Cc1ccc2nsnc2c1/N=C/c1c(O)ccc2ccccc12` [Compound 53], in assay [1], the activity at 3 µM turned out to be 64%. The remaining activity at 1 µM in assay [2] amounted to 12%.
In the case of `Cc1ccc(/N=C/c2cc(Br)cc(Br)c2O)c(C)c1` [Compound 54], the activity at 3 µM in assay [1] was found to be 54%. In addition, the remaining activity at 1 µM in assay [2] is 30%.
Consider `Cc1cc(C)c(O)c(/N=C/c2c(O)ccc3ccccc23)c1` [Compound 65], for which the remaining activity at 1 µM in assay [2] (setting [5]) turned out to be 8%; in assay [4], 101%. Further, in assay [3], the “Selectivity (% A* in 1 μM) E2” value stood at 65%.
`Oc1ccc2ccccc2c1/C=N/c1ncc(Br)cc1Br` [Compound 66]: the remaining activity at 1 µM in assay [2] (setting [5]) worked out at 53%; in assay [4], 107%. The “Selectivity (% A* in 1 μM) E2” value in assay [3] is 117%.
In the same order, the values of `O=[N+]([O-])c1ccc2c(c1)Cc1cc(/N=C/c3ccc(Br)cc3)ccc1-2` [Compound 67] are 103%, 92% and 98%.
As to `CCOC(=O)c1c(/N=C/c2cc(Br)ccc2O)sc2c1CCCC2` [Compound 68], the remaining activity at 1 µM in assay [2] (setting [5]) came out at 72%; in assay [4], 91%. Further, the “Selectivity (% A* in 1 μM) E2” value in assay [3] was determined as 57%.
With `Oc1ccc(/N=C/c2cccs2)cc1-c1nc2ccccc2s1` [Compound 71], the remaining activity at 1 µM in assay [2] (setting [5]) was 9%; in assay [4], 84%. In addition, the “Selectivity (% A* in 1 μM) E2” value in assay [3] amounted to 86%.
With `Cc1ccc2nc(-c3ccc(/N=C/c4ccc([N+](=O)[O-])s4)cc3)sc2c1` [Compound 72], the remaining activity at 1 µM in assay [2] (setting [5]) was found to be 39%; in assay [4], 95%. For the same compound, the “Selectivity (% A* in 1 μM) E2” value in assay [3] came out at 77%.
The corresponding values for `Cc1ccc(/C=N/c2ccc(C(N)=O)cc2)o1` [Compound 73] are 16%, 90% and 64%.
With `Cc1ccc(/C=N/c2ccc(Cl)cc2)o1` [Compound 74], the remaining activity at 1 µM in assay [2] (setting [5]) is 17%; in assay [4], 110%. In assay [3], the “Selectivity (% A* in 1 μM) E2” value came out at 96%.
The corresponding values for `CC(=O)Nc1ccc(-c2cc3ccccn3c2)cc1` [Compound 78] are 22%, 151% and 43%.
As to `O=C(C(Cl)Cl)N1CCN(c2ccc([N+](=O)[O-])cc2)CC1` [Compound 79], the remaining activity at 1 µM is 120% in assay [2] (setting [5]) and 89% in assay [4]. The “Selectivity (% A* in 1 μM) E2” value in assay [3] came to 55%.
As to `O=[N+]([O-])c1ccc(Cl)cc1CN1CCN(CCO)CC1` [Compound 82], the values for the remaining activity at 1 µM in assay [2] (setting [5]) and in assay [4] were 60% and 77%, respectively. Besides, the “Selectivity (% A* in 1 μM) E2” value in assay [3] came to 47%.
In the case of `Cc1cc(I)ccc1NCn1nnc2ccccc21` [Compound 105], the remaining activity at 1 µM in assay [2] (setting [5]) is 28%; in assay [4], 117%. Moreover, in assay [3], the “Selectivity (% A* in 1 μM) E2” value came out at 93%.
As for `COc1ccc(CNc2cccc(N(C)C)c2)cc1` [Compound 106], the remaining activity at 1 µM amounted to 27% in assay [2] (setting [5]) and 112% in assay [4]. Moreover, the “Selectivity (% A* in 1 μM) E2” value in assay [3] came out at 88%.
For `Cc1cc(/N=C/c2c(O)ccc3ccccc23)no1` [Compound 111], the remaining activity at 1 µM came out at 17% in assay [2] (setting [5]) and 98% in assay [4]. Also, in assay [3], the “Selectivity (% A* in 1 μM) E2” value was 49%.
Take `Oc1c(Br)cc(Br)cc1/C=N/c1cccc2nsnc12` [Compound 112]: the results for the remaining activity at 1 µM in assay [2] (setting [5]) and in assay [4] were 27% and 117%, respectively. The “Selectivity (% A* in 1 μM) E2” value in assay [3] worked out at 84%.
In the same order, the values of `COc1ccc(/C=C/C(=O)C2C(=O)CCC2=O)cc1OC` [Compound 113] are 74%, 93% and 66%.

The values are drawn from US7659277B2, “Ubiquitin ligase inhibitors and methods related thereto” (Proteologies, Ltd., priority 2003, dated 2010).
